In assay [1] the test system is DU-145. As to the kind of experiment: The concentration levels of putrescine (PU) evaluated for the polyamine and analogue levels in DU145 cells treated with the compound concentration of 0. uM on third day of treatment. The class given is functional, cell-based. The note with it: Homo sapiens.
For assay [2], the system named is DU-145. As to the kind of experiment: The concentration levels of analogue evaluated for the polyamine and analogue levels in DU145 cells treated with the compound concentration of 0 uM on fifth day of treatment. The class given is functional, cell-based. The note with it: Homo sapiens.
The next assay concerns HT-29. As to the kind of experiment: Growth inhibitory activity was measured for human HT-29 tumor cell line. Type of assay: functional. The note with it: Homo sapiens, HT-29; read-out: ID50 (the source's name).
The test system of assay [3] is DU-145. As to the kind of experiment: The concentration levels of spermidine (SD), evaluated for the polyamine and analogue levels in DU145 cells treated with the compound concentration of 5 uM on third day of treatment. The class given is functional, cell-based. As to conditions: Homo sapiens.
The test system of the next assay is MCF7. In words: Growth inhibitory activity was measured for human MCF-7 tumor cell line. The class given is functional. As to conditions: read-out: ID50 (the source's name).
A further assay concerns U-251. As to the kind of experiment: Growth inhibitory activity was measured for human U251MG NCI tumor cell line. As to conditions: read-out: ID50 (the source's name). Type of assay: functional.
Assay [4] relates to DU-145. As to the kind of experiment: The concentration levels of putrescine (PU) evaluated for the polyamine and analogue levels in DU145 cells treated with the compound concentration of 5 uM on fifth day of treatment. The class given is functional, cell-based. As to conditions: Homo sapiens.
For assay [5], the system named is DU-145. In words: The concentration levels of spermidine (SD) evaluated for the polyamine and analogue levels in DU145 cells treated with the compound concentration of 0 uM on fifth day of treatment. Type of assay: functional, cell-based. As to conditions: Homo sapiens.
The subject of assay [6] is DU-145. As to the kind of experiment: The concentration levels of spermine (SP) evaluated for the polyamine and analogue levels in DU145 cells treated with the compound concentration of 5 uM on fifth day of treatment. The class given is functional, cell-based. As to conditions: Homo sapiens.
Assay [7] has as its system DU-145. As to the kind of experiment: The concentration levels of analogue evaluated for the polyamine and analogue levels in DU145 cells treated with the compound concentration of 5 uM on fifth day of treatment. Type of assay: functional, cell-based. As to conditions: Homo sapiens.
Assay [8] has as its system DU-145. As to the kind of experiment: The concentration levels of spermidine (SD), evaluated for the polyamine and analogue levels in DU145 cells treated with the compound concentration of 0 uM on third day of treatment. Type of assay: functional, cell-based. As to conditions: Homo sapiens.
Assay [9] relates to DU-145. As to the kind of experiment: The concentration levels of spermine (SP), evaluated for the polyamine and analogue levels in DU145 cells treated with the compound concentration of 5 uM on fthird day of treatment. As to conditions: Homo sapiens. Type of assay: functional, cell-based.
For assay [10], the system named is DU-145. In words: The concentration levels of analogue evaluated for the polyamine and analogue levels in DU145 cells treated with the compound concentration of 5 uM on third day of treatment. The class given is functional, cell-based. As to conditions: Homo sapiens.
The subject of assay [11] is DU-145. As to the kind of experiment: The concentration levels of spermidine (SD) evaluated for the polyamine and analogue levels in DU145 cells treated with the compound concentration of 5 uM on fifth day of treatment. The class given is functional, cell-based. The note with it: Homo sapiens.
Assay [12] concerns DU-145. In words: The concentration levels of putrescine (PU) evaluated for the polyamine and analogue levels in DU145 cells treated with the compound concentration of 5 uM on third day of treatment. As to conditions: Homo sapiens. The class given is functional, cell-based.
For assay [13], the system named is DU-145. In words: The concentration levels of analogue evaluated for the polyamine and analogue levels in DU145 cells treated with the compound concentration of 0 uM on third day of treatment. The class given is functional, cell-based. As to conditions: Homo sapiens.
Assay [14] relates to DU-145. As to the kind of experiment: The concentration levels of putrescine (PU) evaluated for the polyamine and analogue levels in DU145 cells treated with the compound concentration of 0 uM on fifth day of treatment. The class given is functional, cell-based. The note with it: Homo sapiens.
Assay [15] deals with DU-145. As to the kind of experiment: The concentration levels of spermine (SP) evaluated for the polyamine and analogue levels in DU145 cells treated with the compound concentration of 0 uM on fifth day of treatment. The note with it: Homo sapiens. Type of assay: functional, cell-based.
Another assay relates to A549. In words: Growth inhibitory activity was measured for human A549 tumor cell line. The note with it: Homo sapiens, A549; read-out: ID50 (the source's name). Type of assay: functional.
The test system of the next assay is PC-3. In words: Growth inhibitory activity was measured for human PC-3 tumor cell line. The class given is functional. The note with it: read-out: ID50 (the source's name).
Assay [16] relates to DU-145. In words: The concentration levels of spermine (SP), evaluated for the polyamine and analogue levels in DU145 cells treated with the compound concentration of 0 uM on third day of treatment. Type of assay: functional, cell-based. The note with it: Homo sapiens.
Assay [17] has as its system DU-145. As to the kind of experiment: Growth inhibitory activity was measured for human DU145 tumor cell line. Type of assay: functional. As to conditions: read-out: ID50 (the source's name).

Bounds are passed on as bounds.

For `CCNCCCNCC#CCNCCCNCC`, the Concentration (nM (10e6*cells)-1) was determined as 0.11 with DU-145 [1]; 0.03 in the assay on DU-145 [2]; 0.9 in the assay on DU-145 [3]; 0.06 with DU-145 [4]; 1.55 with DU-145 [5]; 1.33 with DU-145 [6]. In addition, the Concentration (nM (10e6*cells)-1) with DU-145 [7] was 1.71; in the assay on DU-145 [8] it was 1.73; in the assay on DU-145 [9], 2.56; in the assay on DU-145 [10], 2.16; in the assay on DU-145 [11] it was 0.59; in the assay on DU-145 [12], 0.04. In addition, the Concentration (nM (10e6*cells)-1) in the assay on DU-145 [13] was 0.06; with DU-145 [14], 0.03; with DU-145 [15], 1.55; in the assay on DU-145 [16], 3.13. The IC50 was > 31.2 µM with HT-29; > 31.2 µM with MCF7; > 31.2 µM with U-251; > 31.2 µM in the assay on A549; > 31.2 µM in the assay on PC-3 (Homo sapiens, PC-3).

For the compound `CCNCCCNCC1CCC1CNCCCNCC` (stereo in doubt; 19), the IC50 with DU-145 [17] is 50 nM; in the assay on PC-3 it was > 31.2 µM.

The values are drawn from ChEMBL document CHEMBL1131189, “Conformationally restricted analogues of 1N,12N-bisethylspermine: synthesis and growth inhibitory effects on human tumor cell lines” (1998).
